The record followed here is patent US4244970A, “Method of treating inflammation” (Forsyth Dental Infirmary for Children, priority 1979, dated 1981).

This assay deals with prostaglandin synthetase (Ovis aries, UniProt P05979). In words: Prostaglandin synthetase inhibition, sheep vesicular gland microsomal preparation (oxygen electrode). In kind it is biochemical. The note with it: sheep vesicular gland microsomes; 0.1 M Tris HCl pH 8.0; inhibitor added 1 minute before arachidonate; read-out: [I]50, concentration of an inhibitor that reduced prostaglandin synthesis by 50%.
Chain of prostaglandin synthetase (P05979 25-600): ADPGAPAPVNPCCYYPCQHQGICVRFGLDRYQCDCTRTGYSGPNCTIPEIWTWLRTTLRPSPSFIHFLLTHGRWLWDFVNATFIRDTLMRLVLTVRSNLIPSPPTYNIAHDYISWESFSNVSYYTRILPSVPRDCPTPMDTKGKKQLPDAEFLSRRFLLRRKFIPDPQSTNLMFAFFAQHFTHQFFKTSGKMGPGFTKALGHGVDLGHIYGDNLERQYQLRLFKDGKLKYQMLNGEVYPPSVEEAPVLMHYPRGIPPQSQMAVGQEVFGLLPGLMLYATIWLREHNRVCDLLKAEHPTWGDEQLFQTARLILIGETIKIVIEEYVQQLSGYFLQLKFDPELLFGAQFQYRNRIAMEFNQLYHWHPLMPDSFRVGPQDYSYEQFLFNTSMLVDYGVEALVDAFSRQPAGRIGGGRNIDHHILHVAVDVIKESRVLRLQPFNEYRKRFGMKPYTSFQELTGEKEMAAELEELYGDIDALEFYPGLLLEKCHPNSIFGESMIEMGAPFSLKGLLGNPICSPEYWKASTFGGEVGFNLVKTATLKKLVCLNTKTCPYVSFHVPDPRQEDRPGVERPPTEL

Method: Prostaglandin synthetase activity was determined by following oxygen tension in a closed reaction chamber using a Clark-type oxygen electrode. For each assay 2.9 ml of 0.1 M Tris HCl buffer, pH 8.0, 10 ul of 0.2 M phenol, and 50 ul of enzyme suspension (2.5 mg microsomal preparation) were added to the reaction chamber. Ten ul of inhibitor in ethanol was added 1 minute prior to initiation of the reaction. The reaction was initiated by addition of 10 ul of 3.6 mM arachidonate solution. The concentration of an inhibitor that reduced prostaglandin synthesis by 50% ([I]50) was determined from plots of activity vs log concentration of inhibitor.

As to `O=C(c1ccccc1)c1ccccc1O` [2-hydroxybenzophenone], the IC50 is 3.8 µM.
